Numbers after ± are expanded uncertainties.
Experiment: osmotic coefficient (dimensionless); mn = molality of the nth substance listed, in mol/kg
Settings: Liquid, vapor pressure osmometry

CCC[n+]1ccn(C)c1.[Br-] [1-methyl-3-propylimidazolium bromide] + O
osmotic coefficient
Settings | 298.15 K | 308.15 K | 318.15 K | 328.15 K
m1 = 0.0071 | 0.942 ± 0.038 | 0.928 ± 0.037 | 0.961 ± 0.038 | 0.947 ± 0.038
m1 = 0.0141 | 0.917 ± 0.037 | 0.925 ± 0.037 | 0.951 ± 0.038 | 0.95 ± 0.038
m1 = 0.0243 | 0.903 ± 0.036 | 0.902 ± 0.036 | 0.925 ± 0.037 | 0.924 ± 0.037
m1 = 0.0338 | 0.894 ± 0.036 | 0.904 ± 0.036 | 0.92 ± 0.037 | 0.926 ± 0.037
m1 = 0.0462 | 0.89 ± 0.036 | 0.892 ± 0.036 | 0.91 ± 0.037 | 0.91 ± 0.037
m1 = 0.0667 | 0.865 ± 0.035 | 0.875 ± 0.035 | 0.898 ± 0.036 | 0.896 ± 0.036
m1 = 0.0898 | 0.855 ± 0.035 | 0.864 ± 0.035 | 0.874 ± 0.035 | 0.875 ± 0.035
m1 = 0.1081 | 0.839 ± 0.034 | 0.851 ± 0.034 | 0.867 ± 0.035 | 0.864 ± 0.035
m1 = 0.1529 | 0.82 ± 0.033 | 0.835 ± 0.034 | 0.857 ± 0.035 | 0.851 ± 0.034
m1 = 0.194 | 0.807 ± 0.033 | 0.816 ± 0.033 | 0.836 ± 0.034 | 0.842 ± 0.034
m1 = 0.2403 | 0.798 ± 0.033 | 0.802 ± 0.033 | 0.812 ± 0.033 | 0.818 ± 0.033
m1 = 0.3018 | 0.783 ± 0.032 | 0.792 ± 0.033 | 0.805 ± 0.033 | 0.813 ± 0.033
m1 = 0.3677 | 0.762 ± 0.032 | 0.772 ± 0.032 | 0.793 ± 0.033 | 0.794 ± 0.033
m1 = 0.4338 | 0.755 ± 0.031 | 0.761 ± 0.032 | 0.776 ± 0.032 | 0.787 ± 0.032
m1 = 0.5359 | 0.742 ± 0.031 | 0.749 ± 0.031 | 0.753 ± 0.031 | 0.76 ± 0.032
m1 = 0.8595 | 0.706 ± 0.03 | 0.72 ± 0.03 | 0.728 ± 0.031 | 0.735 ± 0.031
m1 = 1.029 | 0.702 ± 0.03 | 0.714 ± 0.03 | 0.717 ± 0.03 | 0.724 ± 0.031
m1 = 1.604 | 0.674 ± 0.029 | 0.696 ± 0.03 | 0.702 ± 0.03 | 0.704 ± 0.03
m1 = 2.104 | 0.676 ± 0.029 | 0.69 ± 0.03 | 0.694 ± 0.03 | 0.701 ± 0.03
m1 = 2.705 | 0.671 ± 0.029 | 0.683 ± 0.03 | 0.701 ± 0.03 | 0.709 ± 0.03

CCCCCn1cc[n+](C)c1.[Br-] [1-pentyl-3-methylimidazolium bromide] + O
osmotic coefficient
Settings | 298.15 K | 308.15 K | 318.15 K | 328.15 K
m1 = 0.0179 | 0.911 ± 0.037 | 0.987 ± 0.039 | 0.94 ± 0.038 | 1.01 ± 0.04
m1 = 0.025 | 0.925 ± 0.037 | 0.964 ± 0.039 | 0.924 ± 0.037 | 0.996 ± 0.04
m1 = 0.0301 | 0.906 ± 0.036 | 0.933 ± 0.037 | 0.912 ± 0.037 | 0.982 ± 0.039
m1 = 0.0518 | 0.878 ± 0.035 | 0.892 ± 0.036 | 0.895 ± 0.036 | 0.955 ± 0.038
m1 = 0.0722 | 0.861 ± 0.035 | 0.872 ± 0.035 | 0.882 ± 0.036 | 0.92 ± 0.037
m1 = 0.0904 | 0.852 ± 0.034 | 0.856 ± 0.035 | 0.871 ± 0.035 | 0.91 ± 0.037
m1 = 0.1155 | 0.826 ± 0.034 | 0.843 ± 0.034 | 0.857 ± 0.035 | 0.852 ± 0.034
m1 = 0.1697 | 0.808 ± 0.033 | 0.811 ± 0.033 | 0.831 ± 0.034 | 0.843 ± 0.034
m1 = 0.2113 | 0.793 ± 0.033 | 0.798 ± 0.033 | 0.816 ± 0.033 | 0.827 ± 0.034
m1 = 0.2308 | 0.785 ± 0.032 | 0.786 ± 0.032 | 0.813 ± 0.033 | 0.811 ± 0.033
m1 = 0.3311 | 0.745 ± 0.031 | 0.76 ± 0.032 | 0.776 ± 0.032 | 0.782 ± 0.032
m1 = 0.3787 | 0.726 ± 0.031 | 0.745 ± 0.031 | 0.762 ± 0.032 | 0.766 ± 0.032
m1 = 0.4716 | 0.704 ± 0.03 | 0.727 ± 0.031 | 0.749 ± 0.031 | 0.754 ± 0.031
m1 = 0.5627 | 0.694 ± 0.03 | 0.709 ± 0.03 | 0.72 ± 0.03 | 0.734 ± 0.031
m1 = 0.6532 | 0.679 ± 0.029 | 0.689 ± 0.03 | 0.697 ± 0.03 | 0.706 ± 0.03
m1 = 0.7246 | 0.669 ± 0.029 | 0.682 ± 0.03 | 0.692 ± 0.03 | 0.697 ± 0.03
m1 = 0.8353 | 0.657 ± 0.029 | 0.666 ± 0.029 | 0.68 ± 0.029 | 0.681 ± 0.029
m1 = 1.026 | 0.618 ± 0.028 | 0.637 ± 0.029 | 0.632 ± 0.028 | 0.649 ± 0.029
m1 = 1.509 | 0.583 ± 0.028 | 0.588 ± 0.028 | 0.594 ± 0.028 | 0.608 ± 0.028
m1 = 2.005 | 0.561 ± 0.027 | 0.565 ± 0.027 | 0.568 ± 0.027 | 0.594 ± 0.028

CCCCCCn1cc[n+](C)c1.[Br-] [3-hexyl-1-methyl-1H-imidazolium bromide] + O
osmotic coefficient
Settings | 298.15 K | 308.15 K | 318.15 K | 328.15 K
m1 = 0.0155 | 0.876 ± 0.035 | 0.889 ± 0.036 | 0.91 ± 0.037 | 0.935 ± 0.037
m1 = 0.021 | 0.869 ± 0.035 | 0.87 ± 0.035 | 0.876 ± 0.035 | 0.911 ± 0.037
m1 = 0.0305 | 0.854 ± 0.035 | 0.858 ± 0.035 | 0.866 ± 0.035 | 0.869 ± 0.035
m1 = 0.0467 | 0.835 ± 0.034 | 0.838 ± 0.034 | 0.848 ± 0.034 | 0.861 ± 0.035
m1 = 0.0633 | 0.815 ± 0.033 | 0.811 ± 0.033 | 0.816 ± 0.033 | 0.821 ± 0.033
m1 = 0.0819 | 0.761 ± 0.032 | 0.763 ± 0.032 | 0.8 ± 0.033 | 0.815 ± 0.033
m1 = 0.121 | 0.741 ± 0.031 | 0.742 ± 0.031 | 0.775 ± 0.032 | 0.79 ± 0.032
m1 = 0.158 | 0.703 ± 0.03 | 0.732 ± 0.031 | 0.754 ± 0.031 | 0.76 ± 0.032
m1 = 0.1845 | 0.708 ± 0.03 | 0.727 ± 0.031 | 0.742 ± 0.031 | 0.75 ± 0.031
m1 = 0.2503 | 0.67 ± 0.029 | 0.69 ± 0.03 | 0.702 ± 0.03 | 0.719 ± 0.03
m1 = 0.3312 | 0.65 ± 0.029 | 0.659 ± 0.029 | 0.672 ± 0.029 | 0.67 ± 0.029
m1 = 0.4111 | 0.602 ± 0.028 | 0.605 ± 0.028 | 0.625 ± 0.028 | 0.63 ± 0.028
m1 = 0.5114 | 0.554 ± 0.027 | 0.585 ± 0.028 | 0.589 ± 0.028 | 0.592 ± 0.028
m1 = 0.5898 | 0.54 ± 0.027 | 0.546 ± 0.027 | 0.555 ± 0.027 | 0.569 ± 0.027
m1 = 0.6829 | 0.517 ± 0.027 | 0.513 ± 0.027 | 0.537 ± 0.027 | 0.544 ± 0.027
m1 = 0.7428 | 0.488 ± 0.027 | 0.489 ± 0.027 | 0.509 ± 0.027 | 0.514 ± 0.027
m1 = 1.119 | 0.384 ± 0.027 | 0.397 ± 0.027 | 0.413 ± 0.027 | 0.429 ± 0.027
m1 = 1.686 | 0.312 ± 0.027 | 0.322 ± 0.027 | 0.352 ± 0.027 | 0.362 ± 0.027
m1 = 2.398 | 0.271 ± 0.028 | 0.292 ± 0.028 | 0.309 ± 0.027 | 0.328 ± 0.027

Reference: the NIST ThermoML archive (doi:10.1016/j.jct.2008.07.011)
